Source: US9289445B2, “Compositions and methods for treating or preventing a retrovirus infection” (University of Rochester, priority 2011, dated 2016)

Tests used:
[1] = tested on: HIV-1 vector (DHIV-GFP) in activated CD4+ T cells; experiment: HIV-GFP vector transduction of activated CD4+ T cells (GFP FACS); assay type: cell-based; conditions: rACT 0.1 and 1 mM, activated CD4+ T cells compared to macrophages
Experimental: Next, rACT was evaluated for its ability to inhibit HIV-1 replication in non-dividing cells. The transduction efficiency of an HIV-1 vector in primary human macrophages in the presence and absence of rACT was measured. Human macrophages, which were prepared from multiple donors, were pre-incubated with various concentrations of rACT, and then transduced with an HIV vector (D3-GFP), which expressed all HIV-1 proteins except Env and Nef (replaced with eGFP). Virus infectivity was determined by FACS analysis for GFP expression at 7 days post infection. […] Finally, the effect of rACT on HIV-1 infection in activated CD4^+ T cells was examined.
(§3) Dideoxy uracil triphosphate (ddUTP) was assessed for its ability to inhibit viral reverse transcription in non-dividing cells. Primary human macrophages and CD4^+ T-cells were isolated from human buffy coats and pretreated with ddUTP. The treated cells were then transduced with a single round of VSV-G pseudotyped HIV-1 vector D3-HIV in the presence of various concentrations of drug.
rACT was tested in T cells as follows, human primary activated CD4^+ T cells (2.5×10^5) cells isolated from two donors were pre-treated with 0, 0.1, and 1 mM rACT for 4 hours, and then the cells were transduced with DHIV-GFP. The transduced cells were fixed at 48 hours post transduction, and analyzed by FACS for determining the percent of GFP cells. […]

[2] = tested on: human primary CD4+ T cells; experiment: Cytotoxicity of rACT, FACS/trypan blue; assay type: cell-based; conditions: concentrations up to 1 mM, 2 days
Experimental: (§1) FIGS. 6A-6E show inhibition of HIV-1 reverse transcription by 3′ deoxyadenosine chain terminator (rACT) in human primary macrophages and its cytotoxicity. FIG. 6A includes a graph showing the cytotoxicity of rACT in human primary CD4^+ T cells, U937 cells, and CHME5 cells. These three types of cells were cultured and treated with different concentrations of rACT (up to 1 mM) for 2 days, and the percentage of live and dead cells were determined by FACS and/or trypan blue staining. The percentage of the live cells in the absence of rACT was used for normalization (100%), and the base line cell death of these cell types in the absence of rACT were less than 5%. FIG. 6B includes FACS results. […] The percentages of GFP positive macrophages and PI positive cells in a representative donor, which were determined by FACS at 7 days post transduction, are shown. […] Genomic DNAs were extracted from the transduced macrophages in FIG. 6B, and were used in a quantitative 2LTR circle PCR assay. Viral production was determined by p24 ELISA with the collected media. […]
(§2) First, the cytotoxicity of rACT in human primary CD4^+ T cells, human primary macrophages, human microglial CHME5, and human premonocytic U937 cell lines was assessed. Cells were incubated with different concentrations of rACT (up to 1 mM) for 2 days, and cell survival was determined. […]

[3] = tested on: HIV-1 vector (D3-GFP) in primary human macrophages; experiment: HIV-GFP vector transduction of primary macrophages (GFP FACS); assay type: cell-based; conditions: rACT 0.1 and 1 mM, 7 days post infection, versus no treatment
Experimental: Human primary macrophages were preincubated with different concentrations of rACT (0, 10, 100 and 100 μM) for 24 hours and then transduced with HIV-GFP vector (equal p24 amounts). The percentages of GFP positive macrophages and PI positive cells in a representative donor, which were determined by FACS at 7 days post transduction, are shown. […] These experiments were performed in triplicate from three different blood donors.
Primary human macrophages were pretreated with ddUTP and transduced with a single round VSV-G pseudotyped HIV-1 vector (D3HIV). […] FIG. 10B is a graph showing the results from flow cytometry analysis of the transduced cells.
Next, rACT was evaluated for its ability to inhibit HIV-1 replication in non-dividing cells. The transduction efficiency of an HIV-1 vector in primary human macrophages in the presence and absence of rACT was measured. Human macrophages, which were prepared from multiple donors, were pre-incubated with various concentrations of rACT, and then transduced with an HIV vector (D3-GFP), which expressed all HIV-1 proteins except Env and Nef (replaced with eGFP). Virus infectivity was determined by FACS analysis for GFP expression at 7 days post infection.
Dideoxy uracil triphosphate (ddUTP) was assessed for its ability to inhibit viral reverse transcription in non-dividing cells. […]

[4] = tested on: human primary macrophages; experiment: Toxicity of rNCTs in macrophages, propidium iodide-based FACS; assay type: cell-based; conditions: 0.5, 1 and 2 mM, 7 days
Experimental: Human primary macrophages were incubated in the presence or absence of rACT, rCCT, rGCT, or rUCT (0.5, 1 and 2 mM) for 7 days, and the percent of live cells (cell survival rate) were determined by propidium iodide-based FACS. FIG. 12 includes a graph of cell survival rate with each rNCTP.
The continuous HIV-1 culture system in human primary macrophages was also employed to evaluate the toxicity of rNCTs in nondividing cells. Human primary macrophages were incubated in the presence or absence of each rNCT (0.5, 1 and 2 mM) for 7 days, and the percentage of live cells (cell survival rate) were determined by propidium iodide-based FACS.

U937 cells = experiment: Cytotoxicity of rACT, FACS/trypan blue; assay type: cell-based, human; conditions: concentrations up to 1 mM, 2 days
Experimental: as §1, §2

CHME5 cells = experiment: Cytotoxicity of rACT, FACS/trypan blue; assay type: cell-based, human; conditions: concentrations up to 1 mM, 2 days
Experimental: as §1, §2

[5] = tested on: HIV-1 2-LTR DNA circles (proviral DNA synthesis) in macrophages; experiment: Quantitative 2LTR circle PCR in transduced macrophages; assay type: cell-based; conditions: rACT 0.1 and 1 mM, macrophages
Experimental: Human macrophages, which were prepared from multiple donors, were pre-incubated with various concentrations of rACT, and then transduced with an HIV vector (D3-GFP), which expressed all HIV-1 proteins except Env and Nef (replaced with eGFP).
as §3
Equal p24 level of the produced vector was used for infecting human macrophages pre-incubated with different concentrations of rACT (RI Chemicals, CA) for 12 hours. For ddUTP, the produced vector was pre-incubated for at least two hours. One half of the harvested cells were used for determining the percentages of the GFP expressing and/or propidium iodide (PI) stained cells by FACS at 7 days post infection. All cells used to asses transduction efficiency were gated or stained with propidium iodide to assure live cells were measured. The remaining cells were used for the extraction of genomic DNA. Quantitative 2LTR circle PCR assay using real-time PCR was normalized by total genomic DNA (Biorad, Hercules, Calif.).

Nc1ncnc2c1ncn2[C@@H]1O[C@H](CO)C[C@H]1O [rACT, 3′-deoxyadenosine]
inhibitory effect on HIV-1 infection (GFP positive cells) [1]: less of an inhibitory effect
cytotoxicity [2]: no significant cytotoxicity
percent of macrophages expressing GFP [3]: reduced the percent of macrophages expressing GFP
cytotoxicity (cell survival rate) [4]: no significant cytotoxicity
cytotoxicity (U937 cells): no significant cytotoxicity
cytotoxicity (CHME5 cells): no significant cytotoxicity
2-LTR circle copy number [5]: substantially reduced the 2-LTR circle copy number
